Laboratory results from ChEMBL document CHEMBL1201862, “PubChem BioAssay data set” (2004).
Where a name gives a salt, the structure may show the parent alone. The source made the active and inactive calls.

Tests used:
[1] = target: NAD-dependent protein deacylase sirtuin-5, mitochondrial (Homo sapiens, UniProt Q9NXA8); assay: SIRT5 desuccinylase inhibitors, dose response, biochemical, fluorescence imaging, cherry-pick, set 5 (AID 720591);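 note: desuccinylation of succinyl peptide AMC substrate read as fluorescence after trypsin release; potency of inhibitors that lower fluorescence and may act on trypsin instead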
Sequence of NAD-dependent protein deacylase sirtuin-5, mitochondrial (Q9NXA8 whole entry): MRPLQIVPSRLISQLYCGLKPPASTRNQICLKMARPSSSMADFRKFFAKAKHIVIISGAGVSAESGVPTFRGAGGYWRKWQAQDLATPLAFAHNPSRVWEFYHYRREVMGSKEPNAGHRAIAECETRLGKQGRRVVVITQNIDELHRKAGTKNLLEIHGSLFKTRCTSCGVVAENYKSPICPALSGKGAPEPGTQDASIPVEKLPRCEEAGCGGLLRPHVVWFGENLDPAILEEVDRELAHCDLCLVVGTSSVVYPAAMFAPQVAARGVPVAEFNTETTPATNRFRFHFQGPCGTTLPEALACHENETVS

Vasopressin V2 receptor = Vasopressin V2 receptor (Homo sapiens, UniProt P30518); assay: Late-stage results from the probe development effort to identify antagonists of arginine vasopressin receptor 1a (AVPR1a): fluorescence-based cell-based dose response AVPR2 inhibition counterscreen assay.; assay type: functional
Sequence of Vasopressin V2 receptor (P30518 whole entry): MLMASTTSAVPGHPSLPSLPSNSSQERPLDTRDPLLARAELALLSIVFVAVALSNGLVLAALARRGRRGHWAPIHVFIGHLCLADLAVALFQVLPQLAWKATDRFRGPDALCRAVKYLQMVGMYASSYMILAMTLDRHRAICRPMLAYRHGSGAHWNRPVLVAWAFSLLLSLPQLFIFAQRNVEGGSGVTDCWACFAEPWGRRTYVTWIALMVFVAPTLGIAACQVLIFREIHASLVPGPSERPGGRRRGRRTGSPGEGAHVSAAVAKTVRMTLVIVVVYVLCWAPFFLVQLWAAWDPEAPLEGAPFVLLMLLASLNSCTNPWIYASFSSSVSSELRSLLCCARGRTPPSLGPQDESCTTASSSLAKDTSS

[2] = Late-stage results from the probe development effort to identify antagonists of arginine vasopressin receptor 1a (AVPR1a): fluorescence-based cell-based dose response AVPR1a inhibition assay.; assay type: functional
[3] = Late-stage results from the probe development effort to identify antagonists of arginine vasopressin receptor 1a (AVPR1a): fluorescence-based cell-based dose response OXTR inhibition counterscreen assay.; assay type: functional
Vasopressin V1b receptor = Vasopressin V1b receptor (Homo sapiens, UniProt P47901); assay: Late-stage results from the probe development effort to identify antagonists of arginine vasopressin receptor 1a (AVPR1a): fluorescence-based cell-based dose response AVPR1b inhibition counterscreen assay.; assay type: functional
Sequence of Vasopressin V1b receptor (P47901 whole entry): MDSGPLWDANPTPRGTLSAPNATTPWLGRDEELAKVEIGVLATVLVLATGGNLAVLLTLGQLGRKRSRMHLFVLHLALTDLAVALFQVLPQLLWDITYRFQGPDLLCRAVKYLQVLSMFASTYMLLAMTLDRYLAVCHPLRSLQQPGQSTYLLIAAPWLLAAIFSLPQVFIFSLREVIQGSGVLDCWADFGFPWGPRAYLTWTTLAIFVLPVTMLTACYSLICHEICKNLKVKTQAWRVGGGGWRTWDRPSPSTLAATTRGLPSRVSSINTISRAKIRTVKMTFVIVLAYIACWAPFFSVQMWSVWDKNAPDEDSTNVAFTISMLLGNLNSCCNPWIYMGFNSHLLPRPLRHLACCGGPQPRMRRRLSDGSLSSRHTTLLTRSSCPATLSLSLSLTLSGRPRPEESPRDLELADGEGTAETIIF

AC50 [1]	SMILES	IC50 (Vasopressin V2 receptor)	IC50 [2]	IC50 [3]	IC50 (Vasopressin V1b receptor)
> 30 µM (inactive)	COc1ccc(OCC(=O)Nc2ccc(C(=O)Nc3ccccc3C(=O)O)cc2)cc1				
	Cc1ccccc1N1CCN(C(=O)N(CC2CC2)c2ccccc2)CC1	4.89 µM (active)	0.019 µM (active)	4.9 µM (active)	22 µM (inactive)
	CCN(C(=O)N1CCN(c2ccccc2C)CC1)c1ccc(OC)cc1	6 µM (active)	0.062 µM (active)	0.5 µM (active)	8.81 µM (active)
> 30 µM (inactive)	CNCCC(Oc1ccccc1OC)c1ccccc1 (stereo not given) [NISOXETINE HYDROCHLORIDE]				
